According to patent US20030004172A1, “Fused pyrimidinone matrix metalloproteinase inhibitors” (priority 2001, published 2003):

Biological target: MMP-13CD (catalytic domain of collagenase-3) (Homo sapiens, UniProt P45452)
Test: Thiopeptolide substrate hydrolysis inhibition assay, MMP-13CD
Assay type: biochemical
Settings: Table I; thiopeptolide substrate, HEPES pH 7.0, 22° C.; read-out: MMP-13CD IC50
Description: Thiopeptolide substrates show virtually no decomposition or hydrolysis at or below neutral pH in the absence of a matrix metalloproteinase enzyme.

Structure (SMILES) | IC50 [µM]
Cn1c(=O)n(Cc2ccccc2C(F)(F)F)c(=O)c2cc(C(=O)OCc3ccccc3)sc21 [Example 139, 1-Methyl-2,4-dioxo-3-(2-trifluoromethyl-benzyl)-1,2,3,4-tetrahydro-thieno[2,3-d]pyrimidine-6-carboxylic acid benzyl ester] | 0.25
Cn1c(=O)n(CCCc2ccccc2)c(=O)c2cc(C(=O)OCc3ccccc3)sc21 [Example 143, 1-Methyl-2,4-dioxo-3-(3-phenyl-propyl)-1,2,3,4-tetrahydro-thieno[2,3-d]pyrimidine-6-carboxylic acid benzyl ester] | 0.28
Cn1c(=O)n(CCS(=O)(=O)c2ccc(Cl)cc2)c(=O)c2cc(C(=O)OCc3ccccc3)sc21 [Example 144, 3-[2-(4-Chloro-benzenesulfonyl)-ethyl]-1-methyl-2,4-dioxo-1,2,3,4-tetrahydro-thieno[2,3-d]pyrimidine-6-carboxylic acid benzyl ester] | 0.003
CC(=O)OCCn1c(=O)c2cc(C(=O)OCc3ccccc3)sc2n(C)c1=O [Example 145, 3-(2-Acetoxy-ethyl)-1-methyl-2,4-dioxo-1,2,3,4-tetrahydro-thieno[2,3-d]pyrimidine-6-carboxylic acid benzyl ester] | 1.3
Cn1c(=O)n(Cc2ccccc2)c(=O)c2cc(C(=O)OCCOc3ccccc3)sc21 [Example 146, 3-Benzyl-1-methyl-2,4-dioxo-1,2,3,4-tetrahydro-thieno[2,3-d]pyrimidine-6-carboxylic acid 2-phenoxyethyl ester] | 47
Cn1c(=O)n(Cc2ccccc2)c(=O)c2cc(C(=O)NCc3ccccc3)sc21 [Example 148, 3-Benzyl-1-methyl-2,4-dioxo-1,2,3,4-tetrahydro-thieno[2,3-d]pyrimidine-6-carboxylic acid benzyl amide] | 0.54
Cn1c(=O)n(Cc2ccccc2)c(=O)c2cc(C(=O)OCc3c(Cl)cccc3Cl)sc21 [Example 149, 3-Benzyl-1-methyl-2,4-dioxo-1,2,3,4-tetrahydro-thieno[2,3-d]pyrimidine-6-carboxylic acid 2,6-dichloro-benzyl ester] | 15
CCCCOC(=O)c1cc2c(=O)n(Cc3ccccc3)c(=O)n(C)c2s1 [Example 150, 3-Benzyl-1-methyl-2,4-dioxo-1,2,3,4-tetrahydro-thieno[2,3-d]pyrimidine-6-carboxylic acid butyl ester] | 13
Cn1c(=O)n(Cc2ccccc2)c(=O)c2cc(C(=O)OCC3COc4ccccc4O3)sc21 (stereo not shown) [Example 151, 3-Benzyl-1-methyl-2,4-dioxo-1,2,3,4-tetrahydro-thieno[2,3-d]pyrimidine-6-carboxylic acid 2,3-dihydro-1,4-benzodioxin-2-ylmethyl ester] | > 100
Cn1c(=O)n(Cc2ccccc2)c(=O)c2cc(C(=O)OCc3ccc(F)cc3)sc21 [Example 153, 3-Benzyl-1-methyl-2,4-dioxo-1,2,3,4-tetrahydro-thieno[2,3-d]pyrimidine-6-carboxylic acid 4-fluoro-benzyl ester] | 0.004
Cn1c(=O)n(Cc2ccccc2)c(=O)c2cc(C(=O)OCc3ccc(C(F)(F)F)cc3)sc21 [Example 156, 3-Benzyl-1-methyl-2,4-dioxo-1,2,3,4-tetrahydro-thieno[2,3-d]pyrimidine-6-carboxylic acid 4-trifluoromethyl-benzyl ester] | 0.18
Cn1c(=O)n(Cc2ccccc2)c(=O)c2cc(C(=O)OCC3CCC3)sc21 [Example 157, 3-Benzyl-1-methyl-2,4-dioxo-1,2,3,4-tetrahydro-thieno[2,3-d]pyrimidine-6-carboxylic acid cyclobutylmethyl ester] | > 100
Cn1c(=O)n(Cc2ccccc2)c(=O)c2cc(C(=O)OCc3c(F)cccc3F)sc21 [Example 158, 3-Benzyl-1-methyl-2,4-dioxo-1,2,3,4-tetrahydro-thieno[2,3-d]pyrimidine-6-carboxylic acid 2,6-difluoro-benzyl ester] | 16
Cn1c(=O)n(Cc2ccccc2)c(=O)c2cc(C(=O)OCCc3ccccc3O)sc21 [Example 159, 3-Benzyl-1-methyl-2,4-dioxo-1,2,3,4-tetrahydro-thieno[2,3-d]pyrimidine-6-carboxylic acid 2-(2-hydroxy-phenyl)-ethyl ester] | 30
CN1CCC(OC(=O)c2cc3c(=O)n(Cc4ccccc4)c(=O)n(C)c3s2)CC1 [Example 161, 3-Benzyl-1-methyl-2,4-dioxo-1,2,3,4-tetrahydro-thieno[2,3-d]pyrimidine-6-carboxylic acid 1-methyl-piperidin-4-yl ester] | 11
Cn1c(=O)n(Cc2ccccc2)c(=O)c2cc(C(=O)OCc3cccnc3)sc21 [Example 163, 3-Benzyl-1-methyl-2,4-dioxo-1,2,3,4-tetrahydro-thieno[2,3-d]pyrimidine-6-carboxylic acid pyridin-3-ylmethyl ester] | 0.016
CC(CN(C)C)OC(=O)c1cc2c(=O)n(Cc3ccccc3)c(=O)n(C)c2s1 (stereo not shown) [Example 165, 3-Benzyl-1-methyl-2,4-dioxo-1,2,3,4-tetrahydro-thieno[2,3-d]pyrimidine-6-carboxylic acid 2-dimethylamino-1-methyl-ethyl ester] | 20

The remaining compounds from weak to strong by IC50, led by results:

IC50 [µM] | Structure (SMILES)
69 | Cn1c(=O)n(Cc2ccccc2)c(=O)c2cc(C(=O)OCCCc3cccnc3)sc21 [Example 164, 3-Benzyl-1-methyl-2,4-dioxo-1,2,3,4-tetrahydro-thieno[2,3-d]pyrimidine-6-carboxylic acid 3-pyridin-3-yl-propyl ester]
62 | Cc1ccc(CCOC(=O)c2cc3c(=O)n(Cc4ccccc4)c(=O)n(C)c3s2)cc1 [Example 155, 3-Benzyl-1-methyl-2,4-dioxo-1,2,3,4-tetrahydro-thieno[2,3-d]pyrimidine-6-carboxylic acid 2-p-tolyl-ethyl ester]
32 | CC(C)c1ccc(COC(=O)c2cc3c(=O)n(Cc4ccccc4)c(=O)n(C)c3s2)cc1 [Example 154, 3-Benzyl-1-methyl-2,4-dioxo-1,2,3,4-tetrahydro-thieno[2,3-d]pyrimidine-6-carboxylic acid 4-isopropyl-benzyl ester]
9.9 | CCN(CC)CC(C)OC(=O)c1cc2c(=O)n(Cc3ccccc3)c(=O)n(C)c2s1 (stereo not shown) [Example 152, 3-Benzyl-1-methyl-2,4-dioxo-1,2,3,4-tetrahydro-thieno[2,3-d]pyrimidine-6-carboxylic acid 2-diethylamino-1-methyl-ethyl ester]
8.3 | Cn1c(=O)n(Cc2ccccc2CS(=O)(=O)c2ccccc2)c(=O)c2cc(C(=O)OCc3ccccc3)sc21 [Example 137, 3-(2-Benzenesulfonylmethyl-benzyl)-1-methyl-2,4-dioxo-1,2,3,4tetrahydro-thieno[2,3-d]pyrimidine-6-carboxylic acid benzyl ester]
0.66 | Cn1c(=O)n(Cc2cccc3ccccc23)c(=O)c2cc(C(=O)OCc3ccccc3)sc21 [Example 138, 1-Methyl-3-naphthalen-1-ylmethyl-2,4-dioxo-1,2,3,4-tetrahydro-thieno[2,3-d]pyrimidine-6-carboxylic acid benzyl ester]
0.39 | CCn1c(=O)c2cc(C(=O)OCc3ccccc3)sc2n(C)c1=O [Example 142, 3-Ethyl-1-methyl-2,4-dioxo-1,2,3,4-tetrahydro-thieno[2,3-d]pyrimidine-6-carboxylic acid benzyl ester]
0.017 | Cn1c(=O)n(Cc2cccc(Cl)c2)c(=O)c2cc(C(=O)OCc3ccccc3)sc21 [Example 140]
